According to the supplement of paper PMC4862054:

Tests used:
BT-549 [1] = assay: normalised viability (% of control), CellTiter-Blue; higher = more viable cells (about 100 = DMSO control); details: 10 nM; incubation time: 72 h
Protocol: (§1)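 DSRT, CellTiter-Blue viability, 72 h incubation. Signal is normalised to DMSO and benzethonium chloride controls. Value is the normalised response at dose 3.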

MFM-223 [2] = assay: as above; details: 10 nM; incubation time: 72 h
Protocol: as §1

MDA-MB-468 [3] = assay: as above; details: 10 nM; incubation time: 72 h
Protocol: as §1

MDA-MB-231 [4] = assay: drug sensitivity score (DSS), CellTiter-Blue viability (DSS (AUC-based score)); higher = stronger viability inhibition; extreme values may be limits of the assay; details: incubation time: 72 h
Protocol: (§2)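 DSRT with the CellTiter-Blue (resazurin reduction) viability readout, fluorescence 560/590 nm, 72 h incubation. Plates were normalised to DMSO and benzethonium chloride controls. DSS is computed from the area under the fitted dose-response curve (5 or 9 concentrations).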

MFM-223 [5] = assay: as above; details: incubation time: 72 h
Protocol: as §2

BT-549 [6] = assay: normalised viability (% of control), CellTiter-Blue; higher = more viable cells (about 100 = DMSO control); details: incubation time: 72 h
In short: (§3)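 Each value is normalised viability at a single listed concentration of the series. Breast cancer cell lines in 384-well plates were incubated 72 h with compound and read by CellTiter-Blue fluorescence at 560/590 nm, with vehicle set to 100 and a positive kill control to 0 on every plate.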

MDA-MB-231 [7] = assay: as above; details: incubation time: 72 h
In short: as §3

Hs578T = assay: as above; details: incubation time: 72 h
In short: as §3

HCC1937 = assay: as above; details: incubation time: 72 h
In short: as §3

HDQ-P1 = assay: as above; details: incubation time: 72 h
In short: as §3

SK-BR-3 = assay: as above; details: incubation time: 72 h
In short: as §3

CAL-148 = assay: as above; details: incubation time: 72 h
In short: as §3

MDA-MB-436 = assay: as above; details: incubation time: 72 h
In short: as §3

MFM-223 [8] = assay: as above; details: incubation time: 72 h
In short: as §3

CAL-120 = assay: as above; details: incubation time: 72 h
In short: as §3

BT-474 = assay: as above; details: incubation time: 72 h
In short: as §3

MDA-MB-453 = assay: as above; details: incubation time: 72 h
In short: as §3

HCC1143 = assay: as above; details: incubation time: 72 h
In short: as §3

MDA-MB-468 [9] = assay: as above; details: incubation time: 72 h
In short: as §3

HCC1599 = assay: as above; details: incubation time: 72 h
In short: as §3

CAL-51 = assay: as above; details: incubation time: 72 h
In short: as §3

DU-4475 = assay: as above; details: incubation time: 72 h
In short: as §3

CAL-85-1 = assay: as above; details: incubation time: 72 h
In short: as §3

Cc1cccc(-c2nn3c(c2-c2ccnc4ccc(C(N)=O)cc24)CCC3)n1
Details	drug sensitivity score	normalised viability [%]
BT-549 [1]	–	96.4
MDA-MB-231 [4]	0	–
MDA-MB-468 [3]	–	110
MFM-223 [2]	–	96.8
MFM-223 [5]	0	–

normalised viability [%]
Details	0.3 nM	1 nM	3 nM	10 nM	100 nM	1000 nM
BT-474	–	120	–	–	110	130
BT-549 [6]	–	93.8	–	–	98.3	109
CAL-51	100	–	93.8	96.5	–	–
CAL-85-1	99.3	–	94.2	101	–	–
CAL-120	–	97.9	–	–	92.8	106
CAL-148	93.4	–	95.2	92.9	–	–
DU-4475	113	–	100	115	–	–
HCC1143	–	98.3	–	–	91	91.1
HCC1599	–	86.8	–	–	91.6	96.8
HCC1937	–	157	–	–	108	126
HDQ-P1	120	–	117	134	–	–
Hs578T	–	106	–	–	112	89.9
MDA-MB-231 [7]	–	109	–	–	128	111
MDA-MB-436	–	120	–	–	96.9	128
MDA-MB-453	122	–	108	97.2	–	–
MDA-MB-468 [9]	–	106	–	–	120	105
MFM-223 [8]	–	96.6	–	–	96.5	93.6
SK-BR-3	–	116	–	–	101	103

Cn1cc(CNCC2CCN(c3ncc(C(=O)NO)cn3)CC2)c2ccccc21
Details	drug sensitivity score	normalised viability [%]
BT-549 [1]	–	103
MDA-MB-231 [4]	15	–
MDA-MB-468 [3]	–	78.3
MFM-223 [2]	–	74.7
MFM-223 [5]	14.9	–

normalised viability [%]
Details	0.3 nM	1 nM	3 nM	10 nM	100 nM	1000 nM
BT-474	–	97.9	–	–	8.46	7.06
BT-549 [6]	–	78	–	–	75.1	12
CAL-51	116	–	115	97.2	–	–
CAL-85-1	90	–	79.9	65.1	–	–
CAL-120	–	88.7	–	–	12.5	3.89
CAL-148	95.6	–	89.2	53.9	–	–
DU-4475	88.5	–	93.7	60	–	–
HCC1143	–	83	–	–	23.6	11.1
HCC1599	–	101	–	–	28	14.5
HCC1937	–	69.2	–	–	31.8	14.7
HDQ-P1	104	–	88.9	88.6	–	–
Hs578T	–	128	–	–	39.3	5.1
MDA-MB-231 [7]	–	103	–	–	17.7	5.23
MDA-MB-436	–	94.5	–	–	80.6	17.7
MDA-MB-453	113	–	63.6	25.8	–	–
MDA-MB-468 [9]	–	107	–	–	38	14.5
MFM-223 [8]	–	88.9	–	–	28.5	8.06
SK-BR-3	–	86.2	–	–	8.01	2.99
